Drawing on patent publication US8710065B2, “Tricyclic inhibitors of kinases” (AbbVie Inc., priority 2011, dated 2014), this text covers Ki for 21 compounds.

SMILES strings stand for the structures. A value given as a limit tells only on which side of the number the result lay.

The assay deals with T1, GST-tagged-Wee1 kinase (Homo sapiens, UniProt P30291).
T1 construct: purchased Carnabio (Carna Biosciences) 05-177
T1 sequence (P30291 whole entry): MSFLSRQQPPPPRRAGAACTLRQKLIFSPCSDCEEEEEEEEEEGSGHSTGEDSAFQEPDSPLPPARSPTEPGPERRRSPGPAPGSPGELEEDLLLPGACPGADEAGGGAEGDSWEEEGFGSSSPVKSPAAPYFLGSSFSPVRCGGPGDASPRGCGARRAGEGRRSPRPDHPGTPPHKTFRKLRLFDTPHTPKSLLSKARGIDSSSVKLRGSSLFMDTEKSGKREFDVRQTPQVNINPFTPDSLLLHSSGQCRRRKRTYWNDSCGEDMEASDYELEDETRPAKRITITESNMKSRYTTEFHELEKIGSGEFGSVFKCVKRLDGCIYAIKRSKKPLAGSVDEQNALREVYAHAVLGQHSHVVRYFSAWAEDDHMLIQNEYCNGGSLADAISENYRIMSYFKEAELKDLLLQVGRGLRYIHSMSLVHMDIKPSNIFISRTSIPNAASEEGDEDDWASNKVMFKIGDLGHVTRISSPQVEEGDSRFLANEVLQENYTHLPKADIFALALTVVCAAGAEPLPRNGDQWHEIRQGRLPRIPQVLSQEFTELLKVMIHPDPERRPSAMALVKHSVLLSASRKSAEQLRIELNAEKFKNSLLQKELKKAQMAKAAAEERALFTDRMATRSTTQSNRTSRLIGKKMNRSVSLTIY
The experiment in a line: Wee1 time-resolved fluorescence equilibrium binding assay (displacement of Oregon Green-labeled ATP-competitive kinase probe). To be noted: read-out: Wee-1 inhibition (Ki). The method, boiled down: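 Time-resolved fluorescence equilibrium binding with GST-Wee1, measuring displacement of a rapidly reversible Oregon Green-labelled ATP-competitive probe by competitive inhibitors; values reported as Ki.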
One may read the Ki as a dissociation constant, usually derived from enzyme kinetics or from competition with a known ligand. For the compound `O=c1c2cnc(Nc3ccc(N4CCN5CCC[C@@H]5C4)cc3)nc2n2ccnc2n1-c1c(F)cccc1Cl` [Example 244, 6-(2-chloro-6-fluorophenyl)-2-({4-[(8aR)-hexahydropyrrolo[1,2-a]pyrazin-2(1H)-yl]phenyl}amino)imidazo[1,2-a]pyrimido[5,4-e]pyrimidin-5(6H)-one], the Ki is less than 10 nM.
On to `O=c1c2cnc(Nc3ccc(N[C@H]4CN5CCC4CC5)cc3)nc2n2ccnc2n1-c1ccccc1Cl` [Example 245, 2-({4-[(3R)-1-azabicyclo[2.2.2]oct-3-ylamino]phenyl}amino)-6-(2-chlorophenyl)imidazo[1,2-a]pyrimido[5,4-e]pyrimidin-5(6H)-one], for which the Ki was less than 10 nM.
For `O=c1c2cnc(Nc3ccc(NCCN4CCCC4)cc3)nc2n2ccnc2n1-c1ccccc1Cl` [Example 246, 6-(2-chlorophenyl)-2-[(4-{[2-(pyrrolidin-1-yl)ethyl]amino}phenyl)amino]imidazo[1,2-a]pyrimido[5,4-e]pyrimidin-5(6H)-one] the value was less than 10 nM.
Turning to `O=c1c2cnc(Nc3ccc(N4CCN(c5ccccn5)CC4)cc3)nc2n2ccnc2n1-c1ccccc1Cl` [Example 247, 6-(2-chlorophenyl)-2-({4-[4-(pyridin-2-yl)piperazin-1-yl]phenyl}amino)imidazo[1,2-a]pyrimido[5,4-e]pyrimidin-5(6H)-one], the Ki is less than 10 nM.
In the case of `O=c1c2cnc(Nc3ccc(NCCN4CCOCC4)cc3)nc2n2ccnc2n1-c1ccccc1Cl` [Example 248, 6-(2-chlorophenyl)-2-[(4-{[2-(morpholin-4-yl)ethyl]amino}phenyl)amino]imidazo[1,2-a]pyrimido[5,4-e]pyrimidin-5(6H)-one] it was less than 10 nM; in that of `O=c1c2cnc(Nc3ccc(N4CCC[C@H]4CN4CCCC4)cc3)nc2n2ccnc2n1-c1ccccc1Cl` [Example 249, 6-(2-chlorophenyl)-2-({4-[(2S)-2-(pyrrolidin-1-ylmethyl)pyrrolidin-1-yl]phenyl}amino)imidazo[1,2-a]pyrimido[5,4-e]pyrimidin-5(6H)-one], less than 10 nM.
As to `CN(C)CCCN1CCN(c2ccc(Nc3ncc4c(=O)n(-c5ccccc5Cl)c5nccn5c4n3)cc2)CC1` [Example 250, 6-(2-chlorophenyl)-2-[(4-{4-[3-(dimethylamino)propyl]piperazin-1-yl}phenyl)amino]imidazo[1,2-a]pyrimido[5,4-e]pyrimidin-5(6H)-one], the Ki was less than 10 nM.
Turning to `COC[C@H]1CCCN1c1ccc(Nc2ncc3c(=O)n(-c4ccccc4Cl)c4nccn4c3n2)cc1` [Example 251, 6-(2-chlorophenyl)-2-({4-[(2R)-2-(methoxymethyl)pyrrolidin-1-yl]phenyl}amino)imidazo[1,2-a]pyrimido[5,4-e]pyrimidin-5(6H)-one], the Ki is less than 10 nM.
On to `CCN(CC)C(=O)C1CCCN(c2ccc(Nc3ncc4c(=O)n(-c5ccccc5Cl)c5nccn5c4n3)cc2)C1` (stereo not drawn) [Example 252, 1-(4-{[6-(2-chlorophenyl)-5-oxo-5,6-dihydroimidazo[1,2-a]pyrimido[5,4-e]pyrimidin-2-yl]amino}phenyl)-N,N-diethylpiperidine-3-carboxamide], for which the Ki is less than 10 nM.
For the compound `O=C1CCCN1CCCNc1ccc(Nc2ncc3c(=O)n(-c4ccccc4Cl)c4nccn4c3n2)cc1` [Example 253, 6-(2-chlorophenyl)-2-[(4-{[3-(2-oxopyrrolidin-1-yl)propyl]amino}phenyl)amino]imidazo[1,2-a]pyrimido[5,4-e]pyrimidin-5(6H)-one], the Ki was less than 10 nM.
Turning to `O=c1c2cnc(Nc3ccc(N4CCN(c5ccc(F)cc5)CC4)cc3)nc2n2ccnc2n1-c1ccccc1Cl` [Example 254, 6-(2-chlorophenyl)-2-({4-[4-(4-fluorophenyl)piperazin-1-yl]phenyl}amino)imidazo[1,2-a]pyrimido[5,4-e]pyrimidin-5(6H)-one], the inhibition constant Ki fell in the range of 10 to 100 nM.
On to `CN(C)C1CCN(c2ccc(Nc3ncc4c(=O)n(-c5c(F)cccc5Cl)c5nccn5c4n3)cc2)CC1` [Example 255, 6-(2-chloro-6-fluorophenyl)-2-({4-[4-(dimethylamino)piperidin-1-yl]phenyl}amino)imidazo[1,2-a]pyrimido[5,4-e]pyrimidin-5(6H)-one], for which the Ki is less than 10 nM.
For `O=c1c2cnc(Nc3ccc4c(c3)CC(N3CC[C@H](F)C3)C4)nc2n2ccnc2n1-c1c(F)cccc1Cl` (stereo partly drawn) [Example 256, 6-(2-chloro-6-fluorophenyl)-2-({2-[(3S)-3-fluoropyrrolidin-1-yl]-2,3-dihydro-1H-inden-5-yl}amino)imidazo[1,2-a]pyrimido[5,4-e]pyrimidin-5(6H)-one] the value was less than 10 nM; for `O=c1c2cnc(Nc3ccc4c(c3)CC(NCCF)C4)nc2n2ccnc2n1-c1c(F)cccc1Cl` (stereo not drawn) [Example 257, 6-(2-chloro-6-fluorophenyl)-2-({2-[(2-fluoroethyl)amino]-2,3-dihydro-1H-inden-5-yl}amino)imidazo[1,2-a]pyrimido[5,4-e]pyrimidin-5(6H)-one], less than 10 nM.
With `CCCNC1Cc2ccc(Nc3ncc4c(=O)n(-c5c(F)cccc5Cl)c5nccn5c4n3)cc2C1` (stereo not drawn) [Example 258, 6-(2-chloro-6-fluorophenyl)-2-{[2-(propylamino)-2,3-dihydro-1H-inden-5-yl]amino}imidazo[1,2-a]pyrimido[5,4-e]pyrimidin-5(6H)-one], the Ki was less than 10 nM.
Turning to `O=c1c2cnc(Nc3ccc4c(c3)CC(N3CCCC3)C4)nc2n2ccnc2n1-c1c(F)cccc1Cl` (stereo not drawn) [Example 259, 6-(2-chloro-6-fluorophenyl)-2-{[2-(pyrrolidin-1-yl)-2,3-dihydro-1H-inden-5-yl]amino}imidazo[1,2-a]pyrimido[5,4-e]pyrimidin-5(6H)-one], the inhibitory constant (Ki) is less than 10 nM.
In the case of `CN(C)CCN1CCN(c2ccc(Nc3ncc4c(=O)n(-c5ccccc5Cl)c5nccn5c4n3)cc2)CC1` [Example 260, 6-(2-chlorophenyl)-2-[(4-{4-[2-(dimethylamino)ethyl]piperazin-1-yl}phenyl)amino]imidazo[1,2-a]pyrimido[5,4-e]pyrimidin-5(6H)-one] it was less than 10 nM.
`CN(C)CCCN(C)c1ccc(Nc2ncc3c(=O)n(-c4ccccc4Cl)c4nccn4c3n2)cc1` [Example 261, 6-(2-chlorophenyl)-2-[(4-{[3-(dimethylamino)propyl](methyl)amino}phenyl)amino]imidazo[1,2-a]pyrimido[5,4-e]pyrimidin-5(6H)-one]: the Ki was less than 10 nM.
Consider `CCN(CCN(C)C)c1ccc(Nc2ncc3c(=O)n(-c4ccccc4Cl)c4nccn4c3n2)cc1` [Example 262, 6-(2-chlorophenyl)-2-[(4-{[2-(dimethylamino)ethyl](ethyl)amino}phenyl)amino]imidazo[1,2-a]pyrimido[5,4-e]pyrimidin-5(6H)-one], for which the Ki is less than 10 nM.
With `CN(C)CCN(C)c1ccc(Nc2ncc3c(=O)n(-c4ccccc4Cl)c4nccn4c3n2)cc1` [Example 263, 6-(2-chlorophenyl)-2-[(4-{[2-(dimethylamino)ethyl](methyl)amino}phenyl)amino]imidazo[1,2-a]pyrimido[5,4-e]pyrimidin-5(6H)-one], the Ki was less than 10 nM.
As for `COC[C@@H]1CCCN1c1ccc(Nc2ncc3c(=O)n(-c4ccccc4Cl)c4nccn4c3n2)cc1` [Example 264, 6-(2-chlorophenyl)-2-({4-[(2S)-2-(methoxymethyl)pyrrolidin-1-yl]phenyl}amino)imidazo[1,2-a]pyrimido[5,4-e]pyrimidin-5(6H)-one], the Ki lay in the range of 10 to 100 nM.
